Assay results published in patent US20240219403A1, “METHODS FOR INHIBITING KRAS ONCOPROTEIN THROUGH ENHANCED GTPASE ACTIVITY” (Memorial Sloan-Kettering Cancer Center, priority 2021, published 2024).

Assays:
[1] = target: T1, KRAS^G12C (Homo sapiens, UniProt P01116, G12C); assay: RAS-binding domain (RBD) pulldown of active (GTP-bound) KRAS in KRAS^G12C-mutant cell lines treated with G12C inhibitors; assay type: cell-based
T1 construct: endogenous in cells; host or cells: H358, H2122, H2030, SW1573 (KRAS G12C-mutant lung cancer lines, ATCC)
Protocol: This was performed as described previously (42) by using the RAS activation kit (Thermo Scientific). Briefly, 50 μg whole cell lysates were incubated with 40 μg GST-RBD and 100 μL glutathione beads for 60 min followed by three washes in NP40 wash buffer and elution of pull-down fractions with 2×SDS PAGE loading dye. The samples were then subjected to western blotting with a KRAS specific (WH0003845M1) antibody (43).

[2] = target: T1, KRAS^G12C; assay: GTPase assays of purified GTP-loaded KRAS^G12C incubated with GAP proteins (γ-phosphate, α-phosphate, continuous phosphate release); assay type: biochemical
Protocol: GTP[γ^32P] hydrolysis assay. KRAS proteins (0.5 μg) were reacted with 0.04 μM GTP[γ^32P] (6000 Ci/mmol; PerkinElmer Life Sciences) in 100 μL loading buffer (50 mM HEPES, pH 7.5, 50 mM NaCl, 1 mM DTT, 0.1 mM EGTA, 10 mM EDTA, and 1 mg/mL BSA) for 10 min at 30° C. (5, 40). Loading reactions were stopped by placing on ice and adding MgCl2 to a final concentration of 20 mM. The GTPase assays were performed at 30° C. in 100 μL mixtures containing 20 nM of loaded KRAS and either hydrolysis buffer (25 mM HEPES pH 7.5, 50 mM NaCl, 1 mM DTT, 1 mM MgCl2 and 1 mg/mL BSA) alone, or in combination with WCE or purified RGS3 (0.08-0.4 μg/μL). Equimolar comparisons of NF1, RASA1 and RGS3 were carried out using the continuous hydrolysis assay (see below). Reactions were stopped at the indicated time by filtering through 0.45-μm nitrocellulose membrane filters. The filters were washed 3 times with 0.2 mL of ice-cold hydrolysis buffer, air dried, and processed by autoradiography. Reaction rates were determined by fitting an exponential curve to the data, which was normalized to the baseline value. […]
Continuous hydrolysis assay (two-step detection of inorganic phosphate). […] The reaction was monitored by reading the absorbance at 360 nm every 10 to 20 s for ˜16-60 min at room temperature. […]

Compound | time required for maximal inhibition of KRAS in cells ([1]; media with 10% serum) | time required for maximal inhibition of KRAS in cells ([1]; serum-deprived media (suppresses nucleotide exchange)) | RGS3-assisted hydrolysis by KRAS^G12C slower than NF1-stimulated hydrolysis by KRAS^WT [2] | effect on GTP-hydrolysis by KRAS^G12C ([2]; purified proteins)
C=CC(=O)N1CCN(c2nc(OC[C@@H]3CCCN3C)nc3c2CCN(c2cccc4cccc(C)c24)C3)C[C@@H]1CC#N [MRTX1257] | ~60 min | ~20 min |  | 
RGS3: regulator of G protein signaling 3, recombinant p75/p25 variants; GAP for Gαi/q subunit |  |  | 1-2 orders of magnitude | enhanced GTP-hydrolysis
